Test results: patent EP3053944B1, “METHOD FOR PRODUCING POLYALKYLENE GLYCOL DERIVATIVE HAVING AMINO GROUP AT END, POLYMERIZATION INITIATOR FOR USE IN THE SAME, AND ALCOHOL COMPOUND AS RAW MATERIAL FOR THE POLYMERIZATION INITIATOR” (Shin-Etsu Chemical Co., Ltd., priority 2014, dated 2016)

Key:
Assay type in all cases: physicochemical
[1] = Stability of the initiator when the alkoxide is formed (migration of protective group); details: on synthesis of the alkoxide
From the text: Since the silicon-oxygen bond is generally stronger than the silicon-nitrogen bond, there is a possibility that exchange reaction between the silicon-nitrogen bond and the silicon-oxygen bond progresses within a molecule during synthesis of a silyl-protected amino group-containing alkoxide in the case in which a five-membered ring or six-membered ring structure containing a silicon-oxygen bond can be formed. Therefore, when polymerization is tried using, for example, a compound represented by the following general formula (0a) as a polymerization initiator, polymerization progresses from the amino group side, not from the alkoxide side, and a target polyalkylene glycol derivative cannot be obtained. In contrast, in the polymerization initiator (for example, the following formulas (1a) and (2a)) represented by the general formulas (1) and/or (2) for use in the present embodiment 2, production of the five-membered or six-membered ring containing a silicon-oxygen bond is suppressed by extending the length of a chain that connects nitrogen and oxygen that constitutes O^-M^+ to 4 or more, so that a stable structure can be formed in a state of being an alkoxide. As a result thereof, polymerization progresses from the alkoxide side, and the target polyalkylene glycol derivative can be obtained. [drawing 36]

[2] = Solubility of polymerization initiators in polymerization solvents (visual observation); parameters: key to solubility to polymerization solvents: Toluene / solubility to polymerization solvents: THF: Excellent: In the case in which cloudiness was not observed at all in the solution by visual observation, the initiator was shown as "excellent"; Poor: in the case in which cloudiness was observed or the initiator did not dissolve at all, or in the case in which the initiator decomposed when the alkoxide was formed from the initiator, the initiator was shown as "poor"; details: for solubility to polymerization solvents: THF: initiator dissolved in THF at 20 wt.%; for solubility to polymerization solvents: THF / solubility to polymerization solvents: Toluene: visual observation; for solubility to polymerization solvents: Toluene: initiator dissolved in toluene at 20 wt.%; for dissolution in the solvent(s): summary in words of Table 8, THF or toluene, 20 wt.%
From the text: Results of solubility of the initiators 1-2, 6-7, 9-10 and 12, reference initiators 3-5, 8 and 11, and comparative initiators 1 to 8 to polymerization solvents are shown below. THF in each of the products of the initiators 1-2, 6-7, 9-10 and 12, reference initiators 3-5, 8 and 11, and the comparative initiators 1 to 8 synthesized above was distilled away under reduced pressure to extract the polymerization initiators. The results obtained by dissolving each polymerization initiator in each polymerization solvent at a concentration of 20 wt.% are shown. […]

[3] = Visual check for salt precipitation and cloudiness in the THF solution after initiator synthesis
From the text: Among others, as the solvent for use in the [Pre-Step 2], the same solvent as will be used as the polymerization solvent in the subsequent [Step a] as will be described later is preferably used. The reason is because whether the polymerization initiator synthesized in the [Pre-Step 2] dissolves or not in the polymerization solvent for use in the [Step a] can be confirmed in advance during the synthesis of the polymerization initiator in the [Pre-Step 2]. […] […] By confirming whether the precipitation of a salt and […] of the polymerization initiator represented by the general formula (I) in THF, the solubility of the polymerization initiator in the polymerization solvent in the subsequent [Step a] can be confirmed in advance.
In a glove box under a nitrogen atmosphere, […], and after the mineral oil was washed with hexane to be separated, vacuum drying was performed for about two hours to obtain 0.50 g (12.5 mmol) of potassium hydride. Into the flask, 7.71 g of distilled THF was added with a syringe, and 4.44 g (12.8 mmol) of the compound represented by the general formula (iA) was dripped at normal temperature. Stirring was performed at normal temperature for 1 hour and then at 50°C for 2 hours, so that 12.40 g (1.02 mmol/g) of a THF solution of the compound represented by the general formula (IA) was produced. […]

With `CC[Si](CC)(CC)N(CCCO)[Si](CC)(CC)CC` [Comparative initiator 1, reference compound] the “stability of the initiator” value [1] was “changes in the position protected by a protective group progressed”, the “solubility to polymerization solvents: THF” value (from here on “solubility … THF”) [2] was “Poor” and the “solubility to polymerization solvents: Toluene” value (shortened to “solubility … Toluene”) [2] was “Poor”.

For `C[Si](C)(C)N(CCCO)[Si](C)(C)C` [Comparative initiator 2, reference compound], the “stability of the initiator” value [1] was “changes in the position protected by a protective group progressed”, the “solubility … THF” value [2] was “Poor” and the “solubility … Toluene” value [2] was “Poor”.

In the case of `C=CCN(CC=C)CCCO` [Comparative initiator 3, reference compound], the “solubility … THF” value [2] is reported as “Poor”, the “solubility … Toluene” value [2] is reported as “Poor” and the “dissolution in the solvent(s)” value [2] is reported as “did not dissolve in the solvents”.

In the case of `O=C1c2ccccc2C(=O)N1CCCO` [Comparative initiator 4, reference compound], the “solubility … THF” value [2] is reported as “Poor”, the “solubility … Toluene” value [2] is reported as “Poor” and the “dissolution in the solvent(s)” value [2] is reported as “did not dissolve in the solvents”.

With `CC(C)(C)[Si](C)(C)NCCCO` [Comparative initiator 5, reference compound] the “stability of the initiator” value [1] was “changes in the position protected by a protective group progressed”, the “solubility … THF” value [2] was “Poor” and the “solubility … Toluene” value [2] was “Poor”.

In the case of `C[Si]1(C)CC[Si](C)(C)N1CCCO` [Comparative initiator 6, reference compound], the “stability of the initiator” value [1] is reported as “changes in the position protected by a protective group progressed”, the “solubility … THF” value [2] is reported as “Poor” and the “solubility … Toluene” value [2] is reported as “Poor”.

For `OCCCN(Cc1ccccc1)Cc1ccccc1` [Comparative initiator 7, reference compound], the “solubility … THF” value [2] was “Poor”, the “solubility … Toluene” value [2] was “Poor” and the “dissolution in the solvent(s)” value [2] was “did not dissolve in the solvents”.

In the case of `CC(C)(C)OC(=O)N(CCCO)C(=O)OC(C)(C)C` [Comparative initiator 8, reference compound], the “solubility … THF” value [2] is reported as “Poor”, the “solubility … Toluene” value [2] is reported as “Poor” and the “dissolution in the solvent(s)” value [2] is reported as “did not dissolve in the solvents”.

In the case of `CC[Si](CC)(CC)N(CCCOCCO)[Si](CC)(CC)CC` [Initiator 1], the “stability of the initiator” value [1] is reported as “stably existed”, the “solubility … THF” value [2] is reported as “Excellent” and the “dissolution in the solvent(s)” value [2] is reported as “dissolved in the solvent”.

With `CC[Si](CC)(CC)N(CCCOCCOCCO)[Si](CC)(CC)CC` [Initiator 2] the “stability of the initiator” value [1] was “stably existed”, the “solubility … THF” value [2] was “Excellent” and the “dissolution in the solvent(s)” value [2] was “dissolved in the solvent”.

For `CC(C)(C)[Si](C)(C)NCCCOCCO` [Initiator 6], the “stability of the initiator” value [1] was “stably existed”, the “solubility … THF” value [2] was “Excellent” and the “dissolution in the solvent(s)” value [2] was “dissolved in the solvent”.

For `C[Si]1(C)CC[Si](C)(C)N1CCCOCCO` [Initiator 7], the “stability of the initiator” value [1] was “stably existed”, the “solubility … THF” value [2] was “Excellent” and the “dissolution in the solvent(s)” value [2] was “dissolved in the solvent”.

For `CC(C)(C)OC(=O)N(CCCOCCO)C(=O)OC(C)(C)C` [Initiator 9], the “solubility … THF” value [2] was “Excellent” and the “dissolution in the solvent(s)” value [2] was “dissolved in a solvent”.

With `CC[Si](CC)(CC)N(CCCCCCO)[Si](CC)(CC)CC` [Initiator 10] the “stability of the initiator” value [1] was “stably existed”, the “solubility … Toluene” value [2] was “Excellent” and the “dissolution in the solvent(s)” value [2] was “dissolved in the solvent”.

For `C[Si]1(C)CC[Si](C)(C)N1CCCCCCO` [Initiator 12], the “stability of the initiator” value [1] was “stably existed”, the “solubility … Toluene” value [2] was “Excellent” and the “dissolution in the solvent(s)” value [2] was “dissolved in the solvent”.

With `C=CCN(CC=C)CCCOCCO` [Ref 3] the “solubility … THF” value [2] was “Excellent” and the “dissolution in the solvent(s)” value [2] was “dissolved in a solvent”.

In the case of `C=CCN(CC=C)CCCOCCOCCO` [Ref 4], the “solubility … THF” value [2] is reported as “Excellent” and the “dissolution in the solvent(s)” value [2] is reported as “dissolved in a solvent”.

With `O=C1c2ccccc2C(=O)N1CCCOCCOCCOCCO` [Ref 5] the “solubility … THF” value [2] was “Excellent” and the “dissolution in the solvent(s)” value [2] was “dissolved in a solvent”.

For `OCCOCCOCCOCCCN(Cc1ccccc1)Cc1ccccc1` [Ref 8], the “solubility … THF” value [2] was “Excellent” and the “dissolution in the solvent(s)” value [2] was “dissolved in a solvent”.

For `C=CCN(CC=C)CCCCCCO` [Ref 11], the “solubility … Toluene” value [2] was “Excellent” and the “dissolution in the solvent(s)” value [2] was “dissolved in a solvent”.

With `CC[Si](CC)(CC)N(CCCOCCO)[Si](CC)(CC)CC` [iA] the “Precipitation of a salt and cloudiness” value ([3]; (IA) mass/THF solution mass=22.3 wt.%, prepared with potassium naphthalene) was “not observed” and the “Precipitation of a salt and cloudiness” value ([3]; (IA) mass/THF solution mass=39.8 wt.%, prepared with potassium hydride) was “not observed”.
